This assay has as its system ZR-75-1/MUC1siRNA cells. In words: Expression of Flag-tagged MUC1-CD in ZR-75-1/MUC1siRNA cells. The class given is cell-based, Human. Conditions: compared to empty vector. The procedure: FIG. 9A is a pair of photographs of immunoblots. ZR-75-1/MUC1siRNA cells were transfected with the empty pIRES-puro2 vector or a pIRES-puro2-Flag-MUC1-CD vector. Lysates were prepared from the cells and subjected to SDS-PAGE and immunoblotting using antibodies specific to MUC1-C or β-actin as a control. The molecular weights of proteins (as indicated on the left of the photographs) are expressed as kilodaltons (kDa).
FIG. 9B is a pair of photographs of immunoblots. ZR-75-1/MUC1siRNA cells were transfected with the empty pIRES-puro2 vector or a pIRES-puro2-Flag-MUC1-CD vector. Lysates were prepared from the cells and subjected to immunoprecipitation using antibodies specific to IKKγ. Immunoprecipitates were immunoblotted using antibodies specific for IKKβ or IKKγ as indicated. The molecular weights of proteins (as indicated on the left of the photographs) are expressed as kilodaltons (kDa).
FIG. 9C is a pair of photographs of immunoblots. ZR-75-1/MUC1siRNA cells were transfected with the empty pIRES-puro2 vector or a pIRES-puro2-Flag-MUC1-CD vector. Lysates were prepared from the cells and subjected to immunoprecipitation using antibodies specific for IKKβ. Immunoprecipitates were immunoblotted using antibodies specific for phospho-IKKβ-ser-181 or IKKβ as indicated. The molecular weights of proteins (as indicated on the left of the photographs) are expressed as kilodaltons (kDa).
FIG. 9D is a pair of photographs of immunoblots. Cytosolic fractions were prepared from ZR-75-1/MUC1siRNA cells transfected with the empty pIRES-puro2 vector or a pIRES-puro2-Flag-MUC1-CD vector. Lysates were immunoblotted with anti-phospho-IκBα and anti-IκBα antibodies where indicated. The molecular weights of proteins (as indicated on the left of the photographs) are expressed as kilodaltons (kDa).
FIG. 9E is a photograph of an immunoblot. Nuclear fractions were prepared from ZR-75-1/MUC1siRNA cells transfected with the empty pIRES-puro2 vector or a pIRES-puro2-Flag-MUC1-CD vector and subjected to immunoblotting with antibodies specific for NF-κB or lamin B as a control. As a further control for the quality of nuclear fractionation, immunoblotting for IκBα was performed using antibodies specific for IκBα. The molecular weights of proteins (as indicated on the left of the photographs) are expressed as kilodaltons (kDa).
Subcellular fractionation. Nuclear and cytosolic fractions were prepared as described in Kharbanda et al. (1996) Cancer Res. 56:3617-3621.
Immunoprecipitation and immunoblotting. Lysates from subconfluent cells were prepared as described in Ren et al. (2004) Cancer Cell 5:163-175. […] The immune complexes were detected with horseradish peroxidase-conjugated secondary (anti-IgG) antibodies (Amersham Biosciences) and enhanced chemiluminescence (ECL; Amersham Biosciences). […]

For “MUC1-CD: 72 amino acid cytoplasmic domain of human MUC1, SEQ ID NO:2”, the IKKβ-IKKγ complex formation result is “increases in IKKβ-IKKγ complex formation” and the “phosphorylation of IKKβ on Ser-181” value is recorded as “increased phosphorylation”. In addition, under “cytosolic fractions”, the “phosphorylation of IκBα” value is given as “increased phosphorylation”. Besides, the “targeting of NF-κB p65 to the nucleus” value (nuclear fractions) was “increased targeting of NF-κB p65 to the nucleus”.

Source of the values: patent US8129345B2, “MUC1-IκB kinase complexes and their activities” (Dana-Farber Cancer Institute, Inc., priority 2006, dated 2012).
